{"source": "patent US20140100165A1", "about": "“PREVENTION OF KIDNEY INJURY OR DISEASE” (University of Florida Research Foundation, priority 2012, published 2014)", "key": {"[1]": {"tested_on": "Acute Kidney Injury (AKI) in patients undergoing cardiac surgery", "assay": "Example 1: prevention of AKI by different dosage regimes of AP214 in patients undergoing cardiac surgery", "assay_type": "in vivo, human", "description": "Each of 12 patients undergoing cardiac surgery (the AP214 group) was dosed with 600 μg/kg AP214: 200 μg/kg at skin incision, 200 μg/kg at cross clamp release, and 200 μg/kg 6-hour after cross clamp release. Each dosage was provided over a period of 10 minutes. The placebo group included 13 patients undergoing cardiac surgery without AP214 infusion.\nObjectives • trial objective was to assess the effect of AP214 on • 1) changes in serum creatinine, cystatin-C and carbamade, • 2) on eGFR and • 3) on the development of post-surgical acute kidney injury (AKI) • AKI also assessed (post-hoc analysis) by AKIN and RIFLE\nThree different definitions of AKI were tested: • 1) 3 patients in the AP214 group developed AKI, in contrast to 7 patients in the placebo group who developed AKI. AKI is defined as in the CS005 protocol: • An absolute increase in serum creatinine of more than or equal to 26.4 μmol/l (0.3 mg/dl) or • A percentage increase in serum creatinine of more than or equal to 50% (1.5-fold from baseline) from Day 0-14 and/or • Urine output less than 0.5 mL/kg per hour for more than 6 hours. • 2) AKI according to the AKIN score as presented in FIG. 3a, and • 3) AKI according to the RIFLE score as presented in FIG. 3b."}, "[2]": {"assay": "Example 3: evaluation of rate of infusion of AP214 (adverse events, tolerability)", "assay_type": "in vivo, human", "description": "To establish a suitable rate of infusion of AP214 a set of patient trials were performed.\nAP214 isotonic solution single ascending doses (25, 50 and 100 μg/kg) for intravenous infusion administered over 10 minutes, or placebo (saline infusion).\nAP214 isotonic solution single doses (100 μg/kg over 1 minute; 100 μg/kg over 30 seconds; 200 μg/kg over 30 seconds) for intravenous infusion."}, "[3]": {"tested_on": "complete warm ischemia in the kidney", "settings": "pigs; 200 μg/kg, 10 ml i.v. bolus during 1 minute, seven doses; cited from earlier work"}, "[4]": {"tested_on": "Acute Kidney Injury (AKI) in patients undergoing cardiac surgery on cardiopulmonary bypass", "assay_type": "in vivo", "settings": "for kidney function as measured by estimated GFR: seven day post-operative period", "excerpt": "The CS007 trial was designed to study both short and long term efficacy signals (FIG. 5).\nPrimary Aims • Safety: Safety and tolerability vs. placebo • Efficacy: Max post-operative change in absolute values of SCr compared to baseline within the first 7 days after surgery or until discharge from hospital, whichever comes first vs. placebo.\nSecondary aims • Composite: • Assess the proportion of patients reaching the composite endpoint of death, need for RRT or a 25% reduction in renal function over a 90 day post-operative period vs. placebo. • AKIN: Assess post-operative incidence of AKI within 48 hours post-surgery • RIFLE: Assess post-operative incidence of AKI within first 7 days post-surgery. • SCr: Changes between surgery and postoperative day 7. • GFR: Changes at day 90 compared to baseline. • eGFR: Changes between surgery and postoperative day 7\nEach dosage was provided over a period of 10 minutes. As used throughout this disclosure and unless specified otherwise, “μg/kg” refers to […] AP214 per kg bodyweight of the patient being treated.\nMoreover, in the same double-blind study described in this Example, patients undergoing cardiac surgery on cardiopulmonary bypass (CPB) were randomized to placebo (PBO; n=26), AP214 given at either 600 μg/kg (n=25), or 800 μg/kg (n=26), divided into 3 bolus infusions at the predetermined intervals as described above. AKI was determined according to AKIN and RIFLE scores."}, "[5]": {"settings": "600 μg/kg bodyweight (3×200 μg/kg) i.v. over 10 minutes each, vs placebo"}, "[6]": {"settings": "600 μg/kg bodyweight, vs placebo"}}, "note": "Like-named read-outs stand apart in the source and are kept apart here.", "data": [{"compound": "CSCC[C@H](NC(=O)[C@H](CO)NC(=O)[C@H](Cc1ccc(O)cc1)NC(=O)[C@H](CO)NC(=O)[C@H](CCCCN)NC(=O)[C@H](CCCCN)NC(=O)[C@H](CCCCN)NC(=O)[C@H](CCCCN)NC(=O)[C@H](CCCCN)NC(=O)[C@H](CCCCN)NC(C)=O)C(=O)N[C@@H](CCC(=O)O)C(=O)N[C@@H](Cc1c[nH]cn1)C(=O)N[C@@H](Cc1ccccc1)C(=O)N[C@@H](CCCNC(=N)N)C(=O)N[C@@H](Cc1c[nH]c2ccccc12)C(=O)NCC(=O)N[C@@H](CCCCN)C(=O)N1CCC[C@H]1C(=O)N[C@H](C(N)=O)C(C)C", "note": "[AP214, Acetyl-Lysyl-L-lysyl-L-lysyl-L-lysyl-L-lysyl-L-lysyl-L-seryl-L-tyrosyl-L-seryl-L-methionyl-Lglutamyl-L-histidyl-L-phenylalanyl-L-arginyl-L-tryptophanyl-glycyl-L-lysyl-L-prolyl-L-valine amide]", "values": [{"measurement": "prevention of AKI as compared to placebo", "setting": "[1]; 150 μg/kg bodyweight (3×50 μg/kg), same dosing scheme", "result": "showed no prevention of AKI"}, {"measurement": "patients who developed AKI (AKI as defined in the CS005 protocol)", "setting": "[1]; 600 μg/kg (3×200 μg/kg), AP214 group of 12 patients, 7 of 13 in placebo group", "result": 3, "unit": "patients"}, {"measurement": "development of AKI according to the RIFLE and AKIN scores", "setting": "[1]; 600 μg/kg bodyweight (3×200 μg/kg)", "result": "demonstrated prevention in the development of AKI"}, {"measurement": "decrease in eGFR", "setting": "[1]; [5]", "result": "prevented a decrease in eGFR"}, {"measurement": "increase in serum creatinine", "setting": "[1]; [5]", "result": "prevented"}, {"measurement": "increase in carbamide", "setting": "[1]; [6]", "result": "prevented"}, {"measurement": "increase in cystatin C", "setting": "[1]; [6]", "result": "prevented an increase in cystatin C"}, {"measurement": "adverse events", "setting": "[2]; 100 μg/kg over 10 minutes i.v. (slower infusion rate)", "result": "did not show these adverse effects"}, {"measurement": "adverse events versus 100 μg/kg over 30 sec and 1 minute", "setting": "[2]; 200 μg/kg over 30 seconds i.v.", "result": "more adverse events"}, {"measurement": "subjects with erythema", "setting": "[2]; Group 2 (n=6), short infusion times", "result": 6, "unit": "subjects"}, {"measurement": "adverse events", "setting": "[2]; Group 2 (n=6): 100 μg/kg over 1 minute, 100 μg/kg over 30 seconds, 200 μg/kg over 30 seconds, i.v.", "result": "A large number of adverse events were reported"}, {"measurement": "renoprotective effect", "setting": "[3]", "result": "provides a renoprotective effect"}, {"measurement": "population distribution of extreme serum creatinine values (highest quartile)", "setting": "[4]; 600 μg/kg", "result": "showed a reduction in serum creatinine values at the highest quartile"}, {"measurement": "kidney function as measured by estimated GFR", "setting": "[4]; 600 μg/kg", "result": "increased kidney function"}, {"measurement": "population distribution of extreme serum creatinine values (highest quartile)", "setting": "[4]; 800 μg/kg", "result": "showed a reduction in serum creatinine values at the highest quartile"}, {"measurement": "degree of acute kidney injury compared to placebo", "setting": "[4]; 800 μg/kg, Day 0-7", "result": "displayed lesser degrees of acute kidney injury"}, {"measurement": "incidence of AKI compared with PBO, by surgery type", "setting": "[4]; 800 μg/kg, combined CABG and valve surgery, multiple valve surgery, chronic kidney disease and CABG (or valve surgery)", "result": "numerically lower incidence of AKI"}, {"measurement": "kidney function as measured by estimated GFR", "setting": "[4]; 800 μg/kg", "result": "increased kidney function"}]}]}
